Experiments:
EcOmpF = target: T1, EcOmpF (Escherichia coli, UniProt P02931); experiment: proteoliposome swelling, decrease in A400; format: biochemical; conditions: diffusive transport through general porin, no binding constant, 10 mM HEPES-NaOH pH 7.5, 12 mM stachyose inside
T1 construct: gene ompF; full-length, untagged (pBAD24-EcOmpF), expressed in E. coli BL21(DE3), purified from outer membranes; trimer; reconstituted in liposomes
T1 sequence (P02931 23-362): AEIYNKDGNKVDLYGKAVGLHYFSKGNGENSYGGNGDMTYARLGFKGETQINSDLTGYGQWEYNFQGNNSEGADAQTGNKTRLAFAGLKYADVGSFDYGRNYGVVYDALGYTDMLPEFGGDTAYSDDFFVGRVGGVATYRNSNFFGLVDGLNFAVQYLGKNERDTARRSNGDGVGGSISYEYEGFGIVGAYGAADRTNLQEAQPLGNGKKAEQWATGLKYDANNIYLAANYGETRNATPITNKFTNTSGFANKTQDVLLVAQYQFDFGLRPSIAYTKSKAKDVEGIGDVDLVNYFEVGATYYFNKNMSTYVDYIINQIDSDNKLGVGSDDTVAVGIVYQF

[1] = target: T2, FNLLGLLA_00518 β-barrel (OmpA-like) (Veillonella parvula, UniProt A0AB38YQ02); experiment: proteoliposome swelling, decrease in A400; format: biochemical; conditions: diffusive transport through channel, no binding constant; much slower than VpOmpM1 and EcOmpF; 10 mM HEPES-NaOH pH 7.5, 12 mM stachyose inside
T2 construct: gene CYJ21_000020; beta-barrel region, residues 21-200 (from plasmid name pB22-00518_21-200); TamB signal peptide and N-terminal His7; expressed in E. coli C43(DE3) delta-cyoABCD; reconstituted in liposomes

VpOmpM1 (full-length) = target: T3, VpOmpM1 (full-length) (Veillonella parvula, UniProt A0A100YN03); experiment: proteoliposome swelling, decrease in A400; format: biochemical; conditions: diffusive transport through general porin, no binding constant; 10 mM HEPES-NaOH pH 7.5, 12 mM stachyose inside; rates normalised to EcOmpF with arabinose
T3 construct: gene KHZ90_07665; full-length without native signal peptide; E. coli TamB signal peptide and N-terminal His7 added (pJW46); expressed in E. coli C43(DE3) delta-cyoABCD; homotrimer; reconstituted in liposomes

[2] = target: VpOmpM1 stalk construct (residues 22-107) (Veillonella parvula); experiment: crystal structure; stalk construct 22-107 at ~20 mg/ml; 0.1 M citric acid pH 3.5, 2.0 M ammonium sulphate, 20 °C; three chains in the asymmetric unit
[3] = target: VpOmpM1 (OmpM1 from Veillonella parvula), full-length, expressed in E. coli (Veillonella parvula); experiment: cryo-EM structure; single particle; purified VpOmpM1 from E. coli (11.6 mg/ml) or V. parvula (8 mg/ml) in DM detergent, grids plunge-frozen at 4 °C; reconstructions without symmetry (C1) and with C3

| Molecule | proteoliposome swelling, decrease in A400 [1] | proteoliposome swelling, decrease in A400 (VpOmpM1 (full-length)) | further results |
| --- | --- | --- | --- |
| NCCCCN [putrescine] | could only transport putrescine and glycine at much slower rates than VpOmpM1 and EcOmpF | VpOmpM1 could transport lactate, which is essential for V. parvula growth, and putrescine | proteoliposome swelling, decrease in A400 (EcOmpF; rates normalised to EcOmpF with arabinose): putrescine and glycine at much slower rates than VpOmpM1 and EcOmpF |
| C[C@H](O)C(=O)O [lactate] | – | VpOmpM1 could transport lactate, which is essential for V. parvula growth, and putrescine | – |
| VpOmpM1 stalk construct (residues 22-107) (domain or fragment) | – | – | stoichiometry N [2]: 3 |
| OC1OC[C@H](O)[C@H](O)[C@H]1O (some centres unmarked) [arabinose] | – | – | proteoliposome swelling, decrease in A400 (EcOmpF; reference condition to which all rates are normalised): All data were normalized to EcOmpF-containing liposome swelling in the presence of arabinose |
| NCC(=O)O [glycine] | could only transport putrescine and glycine at much slower rates than VpOmpM1 and EcOmpF | – | – |
| VpOmpM1 (OmpM1 from Veillonella parvula), full-length, expressed in E. coli (natural protein) | – | – | stoichiometry N [3]: 3 |
